Experimental data published in patent US8603975B2, “Cyclic peptide compounds” (priority 2007, dated 2013).
*1 amine or outer side, *2 acyl side, *3 side chain or, on linkers, in order; H or OH if unused. Where a SMILES comes first, the peptide text is derived from it. [ ]: non-standard residue; d: D form. The star is where a group is joined. X1 = C[C@H](COC(=O)N(C)c1ccccn1)C[C@@H](C(=O)[*:2])N(C)[*:1]; X2 = COCCN(CCOC)C(=O)OC[C@@H](C)C[C@@H](C(=O)[*:2])N(C)[*:1]; X4 = C[C@H](COC(=O)N(C)c1cccnc1)C[C@@H](C(=O)[*:2])N(C)[*:1]; X3 = C[C@H](COC(=O)N1CCN(C)CC1)C[C@@H](C(=O)[*:2])N(C)[*:1]; X6 = C[C@H](COC(=O)N1CCOCC1)C[C@@H](C(=O)[*:2])N(C)[*:1]; NMe(dihydroBmt) = CCCC[C@@H](C)[C@@H](O)[C@H](NC)C(=O)O; X7 = C[C@H](COC(=O)[*:3])C[C@@H](C(=O)[*:2])N(C)[*:1]; MeBmt = C/C=C/C[C@@H](C)[C@@H](O)[C@H](NC)C(=O)O; NMeL = CN[C@@H](CC(C)C)C(=O)O; X8 = CN(c1cnn(CCN2CCOCC2)c1)*; NMeV = CN[C@H](C(=O)O)C(C)C; Sar = CNCC(=O)O

These molecules were tested against HCV replicon. Settings: HCV replicon cells, D-MEM with 5% fetal bovine serum, luciferase activity after two more days of cultivation, 50% enzyme activity level to control (DMSO only).
Format: cell-based, hepatitis C virus
Procedure: It is thought that the replication mechanism of the subgenomic HCV RNA in these cell lines is extremely similar to the replication of full length HCV RNA genome in hepatic cells infected with HCV.
The inhibitory activity of the test compounds against the replication of HCV replicon was evaluated by quantifying the activity of luciferase, a reporter gene product encoded in the replicon system reported by Yokota et al., EMBO J 4: 602-608 (2003). The enzyme assay was carried out according to the technical manual of the Steady-Glo(trade mark) luciferase assay system (Promega). The replicon assay was carried out with the modified method reported by Lohmann et al., Science 285: 110 (1999). The details are described in the following.
6×10^3 HCV replicon cells in D-MEM medium containing 5% fetal bovine serum were seeded in each well of a 96-well microtiter plate (Corning Inc.). After the cells were incubated at 37° C. for 16 hours in 5% CO2, the test compound was added.
After cultivation for two more days, the culture medium was removed and 25 μl of Glo Lysis buffer was added to each well and incubated for 5 minutes. Allowing lysis to occur, 25 μl of Steady-Glo(trade mark) assay reagent was added to each well. After incubation for 5 minutes, the luminescence was measured with a luminometer, Mithras LB940 (BERTHOLD TECHNOLOGIES GmbH & Co.KG) following the manufacturer's instructions.
The luciferase activities in replicon cells treated at each concentrations of the compound were employed for the calculation of EC50 value of the each compound, which gave the compound concentration indicating 50% enzyme activity level to the control (no drug group, containing only DMSO).

SMILES | HCV replicon replication inhibitory activity: EC50 [µg/mL]
C/C=C/C[C@@H](C)[C@@H](O)[C@H]1C(=O)N[C@@H]([C@@H](C)O)C(=O)N(C)CC(=O)N(C)[C@@H](CC(C)C)C(=O)N[C@@H](CC(C)C)C(=O)N(C)[C@@H](CC(C)C)C(=O)N[C@@H](C)C(=O)N[C@H](C)C(=O)N(C)[C@@H](C[C@H](C)COC(=O)N2CCOCC2)C(=O)N[C@@H](CC(C)C)C(=O)N(C)[C@@H](C(C)C)C(=O)N1C [Ex 1] (cyclo([MeBmt]T[Sar][NMeL]L[NMeL]A[dA][X6]L[NMeV])) | 0.15
C/C=C/C[C@@H](C)[C@@H](O)[C@H]1C(=O)N[C@@H]([C@@H](C)O)C(=O)N(C)CC(=O)N(C)[C@@H](CC(C)C)C(=O)N[C@@H](CC(C)C)C(=O)N(C)[C@@H](CC(C)C)C(=O)N[C@@H](C)C(=O)N[C@H](C)C(=O)N(C)[C@@H](C[C@H](C)COC(=O)N2CCN(C)CC2)C(=O)N[C@@H](CC(C)C)C(=O)N(C)[C@@H](C(C)C)C(=O)N1C [Ex 8] (cyclo([MeBmt]T[Sar][NMeL]L[NMeL]A[dA][X3]L[NMeV])) | 0.16
C/C=C/C[C@@H](C)[C@@H](O)[C@H]1C(=O)N[C@@H]([C@@H](C)O)C(=O)N(C)CC(=O)N(C)[C@@H](CC(C)C)C(=O)N[C@@H](CC(C)C)C(=O)N(C)[C@@H](CC(C)C)C(=O)N[C@@H](C)C(=O)N[C@H](C)C(=O)N(C)[C@@H](C[C@H](C)COC(=O)N(CCOC)CCOC)C(=O)N[C@@H](CC(C)C)C(=O)N(C)[C@@H](C(C)C)C(=O)N1C [Ex 10] (cyclo([MeBmt]T[Sar][NMeL]L[NMeL]A[dA][X2]L[NMeV])) | 0.18
C/C=C/C[C@@H](C)[C@@H](O)[C@H]1C(=O)N[C@@H]([C@@H](C)O)C(=O)N(C)CC(=O)N(C)[C@@H](CC(C)C)C(=O)N[C@@H](CC(C)C)C(=O)N(C)[C@@H](CC(C)C)C(=O)N[C@@H](C)C(=O)N[C@H](C)C(=O)N(C)[C@@H](C[C@H](C)COC(=O)N(C)c2cnn(CCN3CCOCC3)c2)C(=O)N[C@@H](CC(C)C)C(=O)N(C)[C@@H](C(C)C)C(=O)N1C [Ex 36] (cyclo([MeBmt]T[Sar][NMeL]L[NMeL]A[dA][X7](X8)L[NMeV])) | 0.09
C/C=C/C[C@@H](C)[C@@H](O)[C@H]1C(=O)N[C@@H]([C@@H](C)O)C(=O)N(C)CC(=O)N(C)[C@@H](CC(C)C)C(=O)N[C@@H](CC(C)C)C(=O)N(C)[C@@H](CC(C)C)C(=O)N[C@@H](C)C(=O)N[C@H](C)C(=O)N(C)[C@@H](C[C@H](C)COC(=O)N(C)c2cccnc2)C(=O)N[C@@H](CC(C)C)C(=O)N(C)[C@@H](C(C)C)C(=O)N1C [Ex 39] (cyclo([MeBmt]T[Sar][NMeL]L[NMeL]A[dA][X4]L[NMeV])) | 0.12
C/C=C/C[C@@H](C)[C@@H](O)[C@H]1C(=O)N[C@@H]([C@@H](C)O)C(=O)N(C)[C@H](COC)C(=O)N(C)[C@@H](CC(C)C)C(=O)N[C@@H](CC(C)C)C(=O)N(C)[C@@H](CC(C)C)C(=O)N[C@@H](C)C(=O)N[C@H](C)C(=O)N(C)[C@@H](C[C@H](C)COC(=O)N(C)CCOC)C(=O)N[C@@H](CC(C)C)C(=O)N(C)[C@@H](C(C)C)C(=O)N1C [Ex 84] | 0.053
C/C=C/C[C@@H](C)[C@@H](O)[C@H]1C(=O)N[C@@H]([C@@H](C)O)C(=O)N(C)[C@H](C)C(=O)N(C)[C@@H](CC(C)C)C(=O)N[C@@H](CC(C)C)C(=O)N(C)[C@@H](CC(C)C)C(=O)N[C@@H](C)C(=O)N[C@H](C)C(=O)N(C)[C@@H](C[C@H](C)COC(=O)N2CCC(C)(OCC)CC2)C(=O)N[C@@H](CC(C)C)C(=O)N(C)[C@@H](C(C)C)C(=O)N1C [Ex 124] | 0.056
C/C=C/C[C@@H](C)[C@@H](O)[C@H]1C(=O)N[C@@H]([C@@H](C)O)C(=O)N(C)[C@H](C)C(=O)N(C)[C@@H](CC(C)C)C(=O)N[C@@H](CC(C)C)C(=O)N(C)[C@@H](CC(C)C)C(=O)N[C@@H](C)C(=O)N[C@H](C)C(=O)N(C)[C@@H](C[C@H](C)COC(=O)N2CCSCC2)C(=O)N[C@@H](CC(C)C)C(=O)N(C)[C@@H](C(C)C)C(=O)N1C [Ex 130] | 0.031
C/C=C/C[C@@H](C)[C@@H](O)[C@H]1C(=O)N[C@@H]([C@@H](C)O)C(=O)N(C)[C@H](C)C(=O)N(C)[C@@H](CC(C)C)C(=O)N[C@@H](CC(C)C)C(=O)N(C)[C@@H](CC(C)C)C(=O)N[C@@H](C)C(=O)N[C@H](C)C(=O)N(C)[C@@H](C[C@H](C)COC(=O)N(C)CC(F)(F)F)C(=O)N[C@@H](CC(C)C)C(=O)N(C)[C@@H](C(C)C)C(=O)N1C [Ex 145] | 0.022
C/C=C/C[C@@H](C)[C@@H](O)[C@H]1C(=O)N[C@@H]([C@@H](C)O)C(=O)N(C)[C@H](COC)C(=O)N(C)[C@@H](CC(C)C)C(=O)N[C@@H](CC(C)C)C(=O)N(C)[C@@H](CC(C)C)C(=O)N[C@@H](C)C(=O)N[C@H](C)C(=O)N(C)[C@@H](C[C@H](C)COC(=O)N2CC[C@H](OC)C2)C(=O)N[C@@H](CC(C)C)C(=O)N(C)[C@@H](C(C)C)C(=O)N1C [Ex 151] | 0.035
CCCC[C@@H](C)[C@@H](O)[C@H]1C(=O)N[C@@H]([C@@H](C)O)C(=O)N(C)CC(=O)N(C)[C@@H](CC(C)C)C(=O)N[C@@H](CC(C)C)C(=O)N(C)[C@@H](CC(C)C)C(=O)N[C@@H](C)C(=O)N[C@H](C)C(=O)N(C)[C@@H](C[C@H](C)COC(=O)N(C)c2ccccn2)C(=O)N[C@@H](CC(C)C)C(=O)N(C)[C@@H](C(C)C)C(=O)N1C [Ex 249] (cyclo([NMe(dihydroBmt)]T[Sar][NMeL]L[NMeL]A[dA][X1]L[NMeV])) | 0.07
